Data reported in patent US20140288040A1, “SUBSTITUTED BENZYLAMINE COMPOUNDS, THEIR USE IN MEDICINE, AND IN PARTICULAR THE TREATMENT OF HEPATITIS C VIRUS (HCV) INFECTION” (ASTEX THERAPEUTICS LIMITED, priority 2011, published 2014).
Structures can show the parent of a compound that is named as a salt. Where two headings read alike, the source gives them in different places.

Molecular target: T1, HCV NS3 protease (full length NS34a) (Hepatitis C virus genotype 1b, UniProt P26663)
T1 construct: The protease activity of the full length NS34a was measured using a FRET-based assay; made in house
Experiment: HCV NS3 protease assay (FRET, full length NS34a)
Type: biochemical
Description: The HCV NS3 protease functions have been extensively studied and are considered as potential targets for antiviral therapy: see for example the many references listed in the introductory section of this application. Therefore, the activity of the compounds of the invention as anti-HCV agents was assessed using a full length HCV NS3 protease.
The protease activity of the full length NS34a was measured using a FRET-based assay utilizing a peptide substrate derived from the NS4AB cleavage site (Anaspec) and labelled at one end with a quencher (QXL520) and at the other with a fluorophore (5-FAMsp). NS34a (produced in-house by literature methods) was incubated with test compounds and peptide substrate in 50 mM Tris pH8, 20 mM DTT, 1% CHAPS, 10% glycerol and 5% DMSO. The reaction was followed by monitoring the change in fluorescence on a Molecular Devices Gemini plate reader for 30 minutes at room temperature. Initial rates were calculated from the progress curves using SoftMax Pro (Molecular Devices). IC50 values were then calculated from replicate curves using Prism GraphPad software.

[1] = protease activity of full length NS34a, FRET peptide substrate, read-out: Activity IC50
[2] = IC50 values of 10-150 μM against the protease activity of the full length NS34a, or at least 40% inhibition of protease activity at a concentration of 100 μM

T1 sequence (P26663 1658-1711): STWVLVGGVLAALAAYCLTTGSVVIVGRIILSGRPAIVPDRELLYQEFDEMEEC
T1 sequence (P26663 1027-1657): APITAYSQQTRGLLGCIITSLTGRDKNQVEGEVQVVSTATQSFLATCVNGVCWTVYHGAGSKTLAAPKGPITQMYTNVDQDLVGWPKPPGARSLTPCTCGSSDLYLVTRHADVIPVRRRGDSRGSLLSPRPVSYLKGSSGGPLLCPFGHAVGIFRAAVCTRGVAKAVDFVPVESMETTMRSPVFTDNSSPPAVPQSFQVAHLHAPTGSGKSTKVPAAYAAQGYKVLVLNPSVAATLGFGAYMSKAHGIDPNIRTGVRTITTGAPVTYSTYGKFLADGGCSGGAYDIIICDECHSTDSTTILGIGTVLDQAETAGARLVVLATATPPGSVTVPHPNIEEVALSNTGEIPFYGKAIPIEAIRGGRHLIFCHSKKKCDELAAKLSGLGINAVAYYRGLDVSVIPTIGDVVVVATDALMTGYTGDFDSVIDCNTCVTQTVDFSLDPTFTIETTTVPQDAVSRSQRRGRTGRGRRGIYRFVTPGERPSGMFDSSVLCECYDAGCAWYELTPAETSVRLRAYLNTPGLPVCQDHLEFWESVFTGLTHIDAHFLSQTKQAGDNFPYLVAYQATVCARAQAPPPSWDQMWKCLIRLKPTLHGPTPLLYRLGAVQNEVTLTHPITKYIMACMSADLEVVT

SMILES | IC50 [1] [µM] | IC50 [2] [µM]
NC(c1ccc(F)c(Oc2ccccc2)c1F)C1CCOCC1 (stereo not shown) [Example 41] | 7.1 | 
CC[C@@H](N[C@H](C)CC(N)=O)c1ccc(Cl)c(Oc2ccc(C(N)=O)nc2)c1F [Example 248, 5-{3-[(R)-1-((R)-2-Carbamoyl-1-methyl-ethylamino)-propyl]-6-chloro-2-fluoro-phenoxy}-pyridine-2-carboxylic acid amide.hydrochloride] |  | 10 to 150
CC[C@@H](N[C@@H](C)CC(N)=O)c1ccc(F)c(Oc2ccccc2)c1F [Example 121] | 0.21 | 
CC[C@H](N)c1ccc(Cl)c(Oc2cccc(C(=O)N3CCCC3)c2)c1F [Example 133, {3-[3-((S)-1-Amino-propyl)-6-chloro-2-fluoro-phenoxy]-phenyl}-pyrrolidin-1-yl-methanone.hydrochloride] | 0.7 | 
C[C@H](CC(N)=O)N[C@H](c1ccc(Cl)c(Oc2ccccc2)c1F)C1CCOCC1 [Example 348] | 10 | 
CC[C@@H](N[C@H](C)CC(N)=O)c1ccc(F)c(Oc2ccccc2)c1F [Example 120] |  | 10 to 150
CCC(NCc1ccc2[nH]ccc2c1)c1ccc(F)c(Oc2ccccc2)c1F (stereo not shown) [Example 35] |  | 10 to 150
NC(c1cccnc1)c1ccc(F)c(Oc2ccccc2)c1F (stereo not shown) [Example 59A, C-(2,4-Difluoro-3-phenoxy-phenyl)-C-pyridin-3-yl-methylamine. dihydrochloride] |  | 10 to 150
CC[C@@H](N)c1ccc(Cl)c(Oc2ccc(Cl)nn2)c1F [Example 153] |  | 10 to 150
CCc1ccc(C(N)CC2CCNCC2)c(F)c1Oc1ccccc1 (stereo not shown) [Example 105B, 1-(4-Ethyl-2-fluoro-3-phenoxy-phenyl)-2-piperidin-4-yl-ethylamine.dihydrochloride] |  | 10 to 150
NC(CC(=O)Nc1ccncc1)c1ccc(F)c(Oc2ccccc2)c1F (stereo not shown) [Example 20, 3-Amino-3-(2,4-difluoro-3-phenoxy-phenyl)-N-pyridin-4-yl-propionamide. dihydrochloride] |  | 10 to 150
CC[C@@H](N)c1ccc(Cl)c(Oc2ccc(CC#N)cc2)c1F [Example 179] | 0.61 | 

The remaining lines, values ahead:

IC50 [1] [µM] | IC50 [2] [µM] | SMILES
2.6 |  | C[C@@H](CC(N)=O)N[C@@H](CCO)c1ccc(Cl)c(Oc2ccccc2)c1F [Example 350]
 | 10 to 150 | CC[C@@H](N[C@@H](C)CC(=O)N[C@@H](C)CO)c1ccc(Cl)c(Oc2ccccc2)c1F [Example 206]
0.68 |  | CCC(Nc1ccncc1)c1ccc(F)c(Oc2ccccc2)c1F (stereo not shown) [Example 113, [1-(2,4-Difluoro-3-phenoxy-phenyl)-propyl]-pyridin-4-yl-amine.hydrochloride]
1.4 |  | CC[C@@H](N[C@@H](C)C(N)=O)c1ccc(Cl)c(Oc2ccccc2)c1F [Example 54, (S)-2-[(R)-1-(4-Chloro-2-fluoro-3-phenoxy-phenyl)-propylamino]-propionamide hydrochloride]
 | 10 to 150 | N[C@H](CC1CCOCC1)c1ccc(Cl)c(Oc2ccccc2)c1F [Example 276A, (R)-1-(4-Chloro-2-fluoro-3-phenoxy-phenyl)-2-(tetrahydro-pyran-4-yl)-ethylamine. hydrochloride]
2 |  | CC[C@@H](N)c1ccc(Cl)c(Oc2ccc(F)cc2)c1F [Example 150]
1.2 |  | CC[C@H](N)c1ccc(Cl)c(Oc2ccccc2)c1Cl [Example 261, (S)-1-(2,4-Dichloro-3-phenoxy-phenyl)-propylamine.hydrochloride]
1.6 |  | CC[C@@H](N[C@@H](C)CC(=O)NCCNC1CC1)c1ccc(Cl)c(Oc2ccccc2)c1F [Example 321]
 | 10 to 150 | NC(=O)C[C@@H](N)c1ccc(Cl)c(Oc2ccccc2)c1F [Example 354]
 | 10 to 150 | CCC(NC(C)C1CC1)c1ccc(F)c(Oc2ccccc2)c1F (stereo not shown) [Example 36]
 | 10 to 150 | CC[C@@H](N)c1ccc(Cl)c(Oc2ccc(C(F)(F)F)cc2)c1F [Example 175]
5.6 |  | CCC(NCc1cnc[nH]1)c1ccc(F)c(Oc2ccccc2)c1F (stereo not shown) [Example 37]
 | 10 to 150 | CC[C@@H](N[C@H](C)CC(N)=O)c1ccc(Cl)c(Oc2ccc(C#N)nc2)c1F [Example 247]
